The values below are quoted from earlier work in patent publication US20110123575A1, “MODIFIED RELEASE NIACIN FORMULATIONS” (DR. REDDY'S LABORATORIES LTD., priority 2008, published 2011).

The conditions of the series: white, crystalline powder.

Each structure is given as a SMILES string.

In the case of `O=C(O)c1cccnc1` [Niacin, 3-pyridinecarboxylic acid], the solubility in water entry is “very soluble in water”.
